Consider 27 molecules from patent US12384786B2 (MINGHUI PHARMACEUTICAL (SHANGHAI) LIMITED, priority 2019, dated 2025).

Like-named read-outs stand apart in the source and are kept apart here.

The target of experiment [1] is Full-length human BTK (Homo sapiens (Human), UniProt Q06187). As to the kind of experiment: BTK inhibitory activity, Reaction Biology Corporation kinase assay. The settings on record: for inhibition at 0.005 µM: read-out: BTK inhibitory rate(%).
Experiment [2] deals with Full-length human BTK (C481S) (Homo sapiens (Human), UniProt Q06187, C481S). As to the kind of experiment: BTK (C481S) inhibitory activity, Reaction Biology Corporation kinase assay. Conditions: for inhibition at 0.005 µM: read-out: BTK(C481S) inhibitory rate(%).
Full-length human BTK (C481S), sequence (Q06187 whole entry C481S): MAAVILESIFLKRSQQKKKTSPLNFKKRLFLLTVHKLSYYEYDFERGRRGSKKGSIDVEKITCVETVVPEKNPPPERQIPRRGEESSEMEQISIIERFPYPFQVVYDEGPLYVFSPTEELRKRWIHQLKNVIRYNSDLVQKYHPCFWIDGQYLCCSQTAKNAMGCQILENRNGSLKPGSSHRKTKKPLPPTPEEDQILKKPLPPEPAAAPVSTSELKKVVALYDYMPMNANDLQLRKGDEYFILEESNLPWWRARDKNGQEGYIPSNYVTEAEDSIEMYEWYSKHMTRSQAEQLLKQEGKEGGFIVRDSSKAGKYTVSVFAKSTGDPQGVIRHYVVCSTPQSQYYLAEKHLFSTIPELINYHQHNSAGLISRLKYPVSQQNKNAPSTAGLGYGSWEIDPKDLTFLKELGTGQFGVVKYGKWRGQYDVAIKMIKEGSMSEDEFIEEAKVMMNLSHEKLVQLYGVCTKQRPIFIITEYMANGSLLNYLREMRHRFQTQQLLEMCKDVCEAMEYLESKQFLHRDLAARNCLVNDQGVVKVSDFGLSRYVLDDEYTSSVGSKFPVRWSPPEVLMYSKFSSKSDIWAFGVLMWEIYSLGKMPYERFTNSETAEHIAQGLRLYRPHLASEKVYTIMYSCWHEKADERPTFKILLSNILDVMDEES
Experiment [3] has as its system TMD8 cells (Human diffuse large B lymphoma cells). As to the kind of experiment: CellTiter-Glo TMD8 inhibitory activity. The settings on record: cultured in vitro. It is filed as cell-based. An excerpt: CellTiter-Glo kit was used to test the TMD8 inhibitory activity of compounds of examples on Human diffuse large B lymphoma cells cultured in vitro. IC50 values were shown below.
On the technique in general: Cellular ATP, detected with luciferase, serves as a proxy for viable cell number.

The mark [4] stands for this setting: IC50(nM) BTK, (d) ATP concentration 50 μM.
[5] abbreviates: IC50(nM) BTK(C481S), (d) ATP concentration 50 μM.
The mark [6] stands for this setting: read-out: IC50(nM) BTK, (a) ATP concentration 30 μM.
Setting [7] is: read-out: IC50(nM) BTK, (d) ATP concentration 50 μM.
Setting [8] is: read-out: IC50(nM) BTK(C481S), (d) ATP concentration 50 μM.

Full-length human BTK, sequence (Q06187 whole entry): as the sequence (Q06187 whole entry C481S) above, with S481C counted along it

Usually IC50 stands for the concentration that gives 50% inhibition. Turning to `COc1cccc(Oc2ccc(-c3nn(C4CCC(CO)OC4)c4ncnc(N)c34)cc2)c1F` (single isomer, unassigned) [Example 30 Peak1-1, (5-(4-amino-3-(4-(2-fluoro-3-methoxyphenoxy)phenyl)-1H-pyrazolo[3,4-d]pyrimidin-1-yl)tetrahydro-2 h-pyran-2-yl)methanol], the IC50 turned out to be 3.8 nM in experiment [1] (setting [4]) and 3.7 nM in experiment [2] (setting [5]).
On the same counts, the results for `COc1cccc(Oc2ccc(-c3nn(C4CCC(CO)OC4)c4ncnc(N)c34)cc2)c1F` (single isomer, unassigned) [Example 30 Peak1-2, (5-(4-amino-3-(4-(2-fluoro-3-methoxyphenoxy)phenyl)-1H-pyrazolo[3,4-d]pyrimidin-1-yl)tetrahydro-2 h-pyran-2-yl)methanol] are 8.5 nM and 6.7 nM.
For `COc1cccc(Oc2ccc(-c3nn(C4CCC(CO)OC4)c4ncnc(N)c34)cc2)c1F` (single isomer, unassigned) [Example 30 Peak2-1, (5-(4-amino-3-(4-(2-fluoro-3-methoxyphenoxy)phenyl)-1H-pyrazolo[3,4-d]pyrimidin-1-yl)tetrahydro-2 h-pyran-2-yl)methanol], in that order: 1.8 nM and 1.1 nM.
For `COc1cccc(Oc2ccc(-c3nn(C4CCC(CO)OC4)c4ncnc(N)c34)cc2)c1F` (single isomer, unassigned) [Example 30 Peak2-2, (5-(4-amino-3-(4-(2-fluoro-3-methoxyphenoxy)phenyl)-1H-pyrazolo[3,4-d]pyrimidin-1-yl)tetrahydro-2 h-pyran-2-yl)methanol], in that order: 5 nM and 2.8 nM.
Consider `Nc1ncnc2c1c(-c1ccc(Oc3ccccc3)cc1)nn2[C@@H]1CCC[C@H](O)C1` [Example 2, (1S, 3R)-3-(4-amino-3-(4-phenoxyphenyl)-1H-pyrazolo[3,4-d]pyrimidin-1-yl) cyclohex-1-ol], for which, in experiment [1], the inhibition at 0.005 µM was 50%.
Turning to `C[C@]1(O)CCC[C@@H](n2nc(-c3ccc(Oc4ccccc4)cc3)c3c(N)ncnc32)C1` [Example 3A, (1s, 3R)-3-(4-amino-3-(4-phenoxyphenyl)-1H-pyrazolo[3,4-d]pyrimidin-1-yl)-1-methylcyclohexane-1-ol], the IC50 in experiment [3] stood at 208 nM.
`C[C@@]1(O)CCC[C@@H](n2nc(-c3ccc(Oc4ccccc4)cc3)c3c(N)ncnc32)C1` [Example 3B, (1R, 3R)-3-(4-amino-3-(4-phenoxyphenyl)-1H-pyrazolo[3,4-d]pyrimidin-1-yl)-1-methylcyclohexane-1-ol]: in experiment [3], the IC50 came to 200 nM.
In experiment [3], `Nc1ncnc2c1c(-c1ccc(Oc3ccccc3)cc1)nn2C1CCC(O)C1` (centres unmarked) [Example 5] yielded an IC50 of 29 nM. Also, the figures for the inhibition at 0.005 µM in experiment [1] and in experiment [2] were 62% and 53%, respectively.
Regarding `CC1(O)CCC(n2nc(-c3ccc(Oc4ccccc4)cc3)c3c(N)ncnc32)C1` (centres unmarked) [Example 6, 3-(4-amino-3-(4-phenoxyphenyl)-1H-pyrazolo[3,4-d]pyrimidin-1-yl)-1-methylcyclopentanol], the 50% inhibitory concentration (IC50) in experiment [3] is 17 nM. The inhibition at 0.005 µM in experiment [1] stood at 70%; in experiment [2] it was 63%.
Molecule `Nc1ncnc2c1c(-c1ccc(Oc3ccccc3)cc1)nn2C1CCC(O)(C(F)(F)F)C1` (centres unmarked) [Example 7, 3-(4-amino-3-(4-phenoxyphenyl)-1H-pyrazolo[3,4-d]pyrimidin-1-yl)-1-(trifluoromethyl) Cyclopentanol] came in with an IC50 in experiment [3] of 504 nM.
Take `Nc1ncnc2c1c(-c1ccc(Oc3ccccc3)cc1)nn2[C@H]1CC[C@@H](O)CC1` [Example 8A, (1s, 4S)-4-(4-amino-3-(4-phenoxyphenyl)-1H-pyrazolo[3,4-d]pyrimidin-1-yl) cyclohexane-1-ol]: the IC50 in experiment [3] worked out at 90 nM. In addition, the results for the inhibition at 0.005 µM in experiment [1] and in experiment [2] were 82% and 66%, respectively.
`C[C@]1(O)CC[C@@H](n2nc(-c3ccc(Oc4ccccc4)cc3)c3c(N)ncnc32)CC1` [Example 9A, (1s,4s)-4-(4-amino-3-(4-phenoxyphenyl)-1H-pyrazolo[3,4-d]pyrimidin-1-yl]-1-methylcyclohexane-1-ol]: in experiment [3], the IC50 came out at 72 nM. Further, the values for the inhibition at 0.005 µM in experiment [1] and in experiment [2] were 57% and 77%, respectively.
`C[C@]1(O)CC[C@H](n2nc(-c3ccc(Oc4ccccc4)cc3)c3c(N)ncnc32)CC1` [Example 9B, (1r,4r)-4 (4-amino-3-(4-phenoxyphenyl)-1H-pyrazolo[3,4-d]pyrimidin-1-yl]-1-methylcyclohexane-1-ol]: the IC50 in experiment [3] was determined as 37 nM. Further, the inhibition at 0.005 µM is 46% in experiment [1] and 63% in experiment [2].
For `Nc1ncnc2c1c(-c1ccc(Oc3ccccc3)cc1)nn2C1CCC(O)(C2CC2)CC1` (centres unmarked) [Example 10, 4-(4-amino-3-(4-phenoxyphenyl)-1H-pyrazolo[3,4-d]pyrimidin-1-yl]-1-cyclopropylcyclohexane-1-ol], in that order: 145 nM, 63% and 72%.
In the case of `Nc1ncnc2c1c(-c1ccc(Oc3cccc(F)c3)cc1)nn2[C@@H]1CCC[C@@H](O)C1` [Example 15], the inhibition at 0.005 µM in experiment [1] is 55%. Also, the IC50 came to 3.8 nM in experiment [1] (read-out: IC50(nM) BTK, (c) ATP concentration 10 μM) and 1.7 nM in experiment [2] (read-out: IC50(nM) BTK(C481S), (c) ATP concentration 10 μM).
As for `Nc1ncnc2c1c(-c1ccc(Oc3ccccc3)cc1F)nn2[C@@H]1CCC[C@@H](O)C1` [Example 16, (1R, 3R)-3-(4-amino-3-(2-fluoro-4-phenoxyphenyl)-1H-pyrazolo[3,4-d]pyrimidin-1-yl)cyclohex-1-ol], the IC50 worked out at 41 nM in experiment [3] and 18.8 nM in experiment [1] (setting [6]).
For `Nc1ncnc2c1c(-c1ccc(Oc3ccccc3F)cc1)nn2[C@@H]1CCC[C@@H](O)C1` [Example 17, (1R,3R)-3-(4-amino-3-(4-(2-fluorophenoxy)phenyl)-1H-pyrazolo[3,4-d]pyrimidin-1-yl)cyclohex-1-ol], in that order: 33 nM and 24.1 nM.
Turning to `Nc1ncnc2c1c(-c1ccc(Oc3c(F)cccc3F)cc1)nn2[C@@H]1CCC[C@@H](O)C1` [Example 18, (1R, 3R)-3-(4-amino-3-(4-(2,6-difluorophenoxy)phenyl)-1H-pyrazolo[3,4-d]pyrimidin-1-yl)cyclohex-1-ol], the IC50 is 183 nM in experiment [3] and 49.1 nM in experiment [1] (setting [6]).
Turning to `COc1cccc(Oc2ccc(-c3nn([C@@H]4CCC[C@@H](O)C4)c4ncnc(N)c34)cc2)c1F` [Example 19, (1R, 3R)-3-(4-amino-3-(4-(2-fluoro-3-methoxyphenoxy)phenyl)-1H-pyrazolo[3,4-d]pyrimidin-1-yl)cyclohex-1-ol], the half-maximal inhibitory concentration (IC50) in experiment [3] turned out to be 0.5 nM; in experiment [1] (setting [6]), 24.9 nM.
With `COc1cccc(Oc2ccc(-c3nn([C@H]4CC[C@@H](O)CC4)c4ncnc(N)c34)cc2)c1F` [Example 20, (1s,4s)-4-(4-amino-3-(4-(2-fluoro-3-methoxyphenoxy)phenyl)-1H-pyrazolo[3,4-d]pyrimidin-1-yl)cyclohex-1-ol], the IC50 turned out to be 8.6 nM in experiment [3]; 5 nM in experiment [1] (read-out: IC50(nM) BTK, (b) ATP concentration 100 μM); 0.9 nM in experiment [2] (read-out: IC50(nM) BTK(C481S), (b) ATP concentration 100 μM).
Take `COc1cccc(Oc2ccc(-c3nn([C@H]4CC[C@H](O)CC4)c4ncnc(N)c34)cc2)c1F` [Example 21, (1r, 4r)-4-(4-amino-3-(4-(2-fluoro-3-methoxyphenoxy)phenyl)-1H-pyrazolo[3,4-d]pyrimidin-1-yl)cyclohex-1-ol]: the IC50 in experiment [1] (setting [6]) came to 16 nM.
In turn, `COc1cccc(Oc2ccc(-c3nn(C4CCC(O)C4)c4ncnc(N)c34)cc2)c1F` (centres unmarked) [Example 22, 3-(4-amino-3-(4-(2-fluoro-3-methoxyphenoxy)phenyl)-1H-pyrazolo[3,4-d]pyrimidin-1-yl)cyclopentane-1-ol] had an IC50 in experiment [3] of 8 nM.
For the molecule `Nc1ncnc2c1c(-c1ccc(Oc3cccc(F)c3)cc1)nn2C1CCC(O)C1` (centres unmarked) [Example 25, 3-(4-amino-3-(4-(3-fluorophenoxy)phenyl)-1H-pyrazolo[3,4-d]pyrimidin-1-yl) cyclopentane-1-ol], the IC50 in experiment [1] (setting [6]) came to 26.9 nM.
On to `COc1cccc(Oc2ccc(-c3nn(C4CCC(O)C(O)C4)c4ncnc(N)c34)cc2)c1F` (centres unmarked) [Example 28, 4-(4-amino-3-(4-(2-fluoro-3-methoxyphenoxy)phenyl)-1H-pyrazolo[3,4-d]pyrimidin-1-yl)cyclohexane-1,2-diol], for which the IC50 in experiment [1] (setting [7]) worked out at 1.7 nM; in experiment [2] (setting [8]) it was 0.6 nM.
Regarding `COc1cccc(Oc2ccc(-c3nn(C4CCCCC4)c4ncnc(N)c34)cc2)c1F` [Example 29, 1-cyclohexyl-3-(4-(2-fluoro-3-methoxyphenoxy)phenyl)-1H-pyrazolo[3,4-d]pyrimidin-4-amine, reference compound], in experiment [1] (setting [6]), the IC50 is 64.1 nM.
For the molecule `COc1cccc(Oc2ccc(-c3nn([C@H]4CCC[C@H](O)C4)c4ncnc(N)c34)cc2)c1F` [Example 32, (1S,3S)-3-(4-amino-3-(4-(2-fluoro-3-methoxyphenoxy)phenyl)-1H-pyrazolin[3,4-d]pyrimidin-1-yl)cyclohexanol], the IC50 came out at 2.6 nM in experiment [1] (setting [7]) and 0.9 nM in experiment [2] (setting [8]).
As to `Nc1ncnc2c1c(-c1ccc(Oc3cccc(O)c3F)cc1)nn2[C@@H]1CCC[C@@H](O)C1` [Example 33, (1R,3R)-3-(4-(4-amino-1-(3-hydroxycyclohexyl)-1H-pyrazolo[3,4-d]pyrimidin-3-yl)phenoxy)-2-fluorophenol], the IC50 in experiment [1] (setting [6]) was 19.2 nM.
